Results on 23 molecules are retold here after patent US20250282746A1, “HALOGEN-SUBSTITUTED ISOINDOLINE COMPOUND AND USE THEREOF” (CHENGDU FENDI PHARMACEUTICAL CO., LTD., priority 2022, published 2025).

One test has as its system MV-4-11 cells. The experiment in a line: Antiproliferative activity against MV-4-11 cells (CellTiter-Glo, 72 h). The class given is cell-based. As to conditions: Homo sapiens, MV4-11, MV-4-11 cells. Put shortly: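 MV-4-11 cells in RPMI + 10% FBS plated at 5,000 cells/well and pre-incubated 24 h at 37 °C, 5% CO2. Compounds were then added (final DMSO 0.2%) and cells incubated 72 h. Viability was read by CellTiter-Glo luminescence after 30 min equilibration at room temperature.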
(In general: In ATP-based viability assays light output follows the ATP content of the culture.)

The target of a further test is T1, GSPT1 protein (Homo sapiens, UniProt P15170).
T1 construct: The whole cell lysate was prepared using a RIPA lysis buffer; endogenous in cells; host or cells: NB-4 cells
Nature of the test: Degradation of GSPT1 protein in NB-4 cells (Western blot). As to conditions: for inhibition at 1 µM: NB-4 cells, compound 1 μM, 6 h, read-out: GSPT1 degradation. The class given is cell-based. Summed up: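 GSPT1 levels were read by Western blot (4-20% SDS-PAGE, PVDF, overnight primary antibody at 4 °C) on lysates of NB-4 cells.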
Background: In western blotting, separated proteins are transferred to a membrane and probed.

The mark [1] stands for this setting: 72 h, read-out: Antiproliferative activity IC50.

Where two headings read alike, the source gives them in different places.

T1 sequence (P15170 whole entry): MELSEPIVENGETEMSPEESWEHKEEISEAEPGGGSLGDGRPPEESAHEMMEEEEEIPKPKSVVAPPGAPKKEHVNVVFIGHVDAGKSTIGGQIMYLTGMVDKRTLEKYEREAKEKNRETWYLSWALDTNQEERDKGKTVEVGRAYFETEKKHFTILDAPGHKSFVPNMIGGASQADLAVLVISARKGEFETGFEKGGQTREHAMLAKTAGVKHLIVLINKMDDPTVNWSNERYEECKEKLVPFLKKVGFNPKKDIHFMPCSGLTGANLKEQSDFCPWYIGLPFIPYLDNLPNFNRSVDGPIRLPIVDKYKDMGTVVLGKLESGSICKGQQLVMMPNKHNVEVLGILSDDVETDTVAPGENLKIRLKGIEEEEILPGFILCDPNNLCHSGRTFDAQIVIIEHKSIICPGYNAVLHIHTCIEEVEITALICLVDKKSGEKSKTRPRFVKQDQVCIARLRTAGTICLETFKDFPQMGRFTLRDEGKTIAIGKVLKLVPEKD

In the case of `O=C1CCC(N2Cc3c(ccc(CNC(=O)c4cc5ccccc5o4)c3Cl)C2=O)C(=O)N1` (stereo not shown) [FDAB-67], the IC50 in the test with MV-4-11 cells (setting [1]) is 1 to 10 nM. Besides, at GSPT1 protein, the inhibition at 1 µM was over 80%.
`N#Cc1cc(F)c2c(c1)CN(C1CCC(=O)NC1=O)C2=O` (stereo not shown) [FDAB-7]: the IC50 in the test with MV-4-11 cells (setting [1]) is over 1000 nM. Also, at GSPT1 protein, the inhibition at 1 µM is under 25%.
Take `O=C1CCC(N2Cc3cc(CNC(=O)c4ccc(Cl)cc4)ccc3C2=O)C(=O)N1` (stereo not shown) [reference compound]: the IC50 in the test with MV-4-11 cells (read-out: IC50 against MV-4-11 cell proliferation) stood at 103 nM. For the same molecule, the “degradation of GSPT1 protein” value at GSPT1 protein (co-incubated for 6 h with NB-4 cells) came out at 65%.
With `O=C1CCC(N2Cc3cc(CNC(=O)c4ccc5ccccc5n4)c(F)cc3C2=O)C(=O)N1` (stereo not shown) [FDAB-60], in the test on MV-4-11 cells (setting [1]), the IC50 is 10 to 100 nM. The inhibition at 1 µM at GSPT1 protein is over 80%.
On to `O=C1CCC(N2Cc3c(ccc(CNC(=O)c4ccc(Cl)cn4)c3F)C2=O)C(=O)N1` (stereo not shown) [FDAB-62], for which the IC50 in the test on MV-4-11 cells (setting [1]) was over 1000 nM. In addition, on GSPT1 protein, the inhibition at 1 µM was under 25%.
Regarding `CC(C)(C)OC(=O)NCc1ccc2c(c1Cl)CN(C1CCC(=O)NC1=O)C2=O` (stereo not shown) [FDAB-11], the IC50 in the test with MV-4-11 cells (setting [1]) is over 1000 nM. Further, the inhibition at 1 µM at GSPT1 protein was under 25%.
For the molecule `Cn1ccc2ccc(C(=O)NCc3cc4c(cc3F)C(=O)N(C3CCC(=O)NC3=O)C4)cc21` (stereo not shown) [FDAB-59], in the test with MV-4-11 cells (setting [1]), the IC50 was over 1000 nM. The inhibition at 1 µM at GSPT1 protein was over 80%.
Taken in the same sequence, the figures for `O=C(Cc1cccc(-c2ccccc2)c1)NCc1ccc2c(c1F)CN(C1CCC(=O)NC1=O)C2=O` (stereo not shown) [FDAB-133] were under 1 nM and over 80%.
In the case of `O=C1CCC(N2Cc3cc(CNC(=O)c4cc5cc(F)ccc5o4)c(F)cc3C2=O)C(=O)N1` (stereo not shown) [FDAB-35], the IC50 in the test on MV-4-11 cells (setting [1]) lay within 10 to 100 nM. Further, the inhibition at 1 µM at GSPT1 protein is 50 to 80%.
On to `O=C1CCC(N2Cc3c(ccc(CNC(=O)c4ccc(Cl)c(O)c4)c3F)C2=O)C(=O)N1` (stereo not shown) [FDAB-83], for which the IC50 in the test on MV-4-11 cells (setting [1]) lay in the range of 10 to 100 nM. Also, at GSPT1 protein, the inhibition at 1 µM is over 80%.
As for `O=C1CCC(N2Cc3c(ccc(CNC(=O)c4ccc(CO)cc4)c3F)C2=O)C(=O)N1` (stereo not shown) [FDAB-108], the IC50 with MV-4-11 cells (setting [1]) was over 1000 nM. At GSPT1 protein, the inhibition at 1 µM was under 25%.
With `N#Cc1cc(C(=O)NCc2ccc3c(c2F)CN(C2CCC(=O)NC2=O)C3=O)ccc1Cl` (stereo not shown) [FDAB-82], the IC50 in the test on MV-4-11 cells (setting [1]) is over 1000 nM. On GSPT1 protein, the inhibition at 1 µM was under 25%.
On to `O=C1CCC(N2Cc3c(ccc(CNCc4cc5cc(Cl)ccc5o4)c3F)C2=O)C(=O)N1` (stereo not shown) [FDAB-165], for which the IC50 in the test with MV-4-11 cells (setting [1]) is 1 to 10 nM. The inhibition at 1 µM at GSPT1 protein is over 80%.
As to `Cc1ccc(C(=O)NCc2ccc3c(c2F)CN(C2CCC(=O)NC2=O)C3=O)cc1N` (stereo not shown) [FDAB-112], in the test with MV-4-11 cells (setting [1]), the IC50 lay within 10 to 100 nM. The inhibition at 1 µM on GSPT1 protein was over 80%.
As to `NCc1cc(F)c2c(c1)CN(C1CCC(=O)NC1=O)C2=O` (stereo not shown) [FDAB-9], the IC50 in the test on MV-4-11 cells (setting [1]) is over 1000 nM. For the same molecule, at GSPT1 protein, the inhibition at 1 µM was under 25%.
On to `O=C1CCC(N2Cc3cc(CNC(=O)C4CCCC4)c(F)cc3C2=O)C(=O)N1` (stereo not shown) [FDAB-41], for which, in the test on MV-4-11 cells (setting [1]), the IC50 was over 1000 nM. Moreover, the inhibition at 1 µM on GSPT1 protein was under 25%.
Taken in the same sequence, the figures for `O=C1CCC(N2Cc3c(ccc(CNC(=O)c4ccc(Cl)c(O)c4)c3Cl)C2=O)C(=O)N1` (stereo not shown) [FDAB-79] were 10 to 100 nM and over 80%.
Regarding `O=C(C#CC1CC1)NCc1cc2c(cc1F)C(=O)N(C1CCC(=O)NC1=O)C2` (stereo not shown) [FDAB-64], in the test on MV-4-11 cells (setting [1]), the IC50 is 100 to 1000 nM. In addition, on GSPT1 protein, the inhibition at 1 µM lay in the range of 50 to 80%.
Taken in the same sequence, the figures for `CCC#CC(=O)NCc1cc2c(cc1F)C(=O)N(C1CCC(=O)NC1=O)C2` (stereo not shown) [FDAB-63] were over 1000 nM and under 25%.
Regarding `O=C(CCP(c1ccccc1)c1ccccc1)NCc1ccc2c(c1F)CN(C1CCC(=O)NC1=O)C2=O` (stereo not shown) [FDAB-160], the IC50 with MV-4-11 cells (setting [1]) is under 1 nM. In addition, at GSPT1 protein, the inhibition at 1 µM was over 80%.
Regarding `Cc1ccc(C(=O)NCc2ccc3c(c2Cl)CN(C2CCC(=O)NC2=O)C3=O)cc1` (stereo not shown) [FDAB-76], the IC50 in the test with MV-4-11 cells (setting [1]) is over 1000 nM. The inhibition at 1 µM on GSPT1 protein was under 25%.
As to `O=C1CCC(N2Cc3cc(CNC(=O)c4cc5cc(Cl)ccc5o4)cc(F)c3C2=O)C(=O)N1` (stereo not shown) [FDAB-22], the IC50 in the test on MV-4-11 cells (setting [1]) is over 1000 nM. Further, at GSPT1 protein, the inhibition at 1 µM is under 25%.
As to `O=C1CCC(N2Cc3cc(CNC(=O)c4ccc(Cl)c(F)c4)c(F)cc3C2=O)C(=O)N1` (stereo not shown) [FDAB-53], the IC50 in the test with MV-4-11 cells (setting [1]) was in the range of 10 to 100 nM. Further, the inhibition at 1 µM at GSPT1 protein is over 80%.
